Experimental data from patent publication US8309140B2, “Effect of porcine sheath proteins on the regeneration activity of periodontal ligament” (priority 2005, dated 2012).
Entries after “also recorded” stand apart in the source; their conditions may differ.

Columns and labels:
ST2 cells = experiment: ALP inducing activity of ST2 cells on cell culture system; format: cell-based, mouse; conditions: 50 μg/ml protein or peptide; TGF-β1 50 ng/ml, BMP-2 500 ng/ml
Description: (§1) Human periodontal ligament (HPDL) cells were obtained according to the method of Somerman et al., (1988) from healthy premolars which were extracted from the patients for orthodontic reasons. The cells were precultured for 4-6 passages with a-MEM medium to establish the primary cell line. The cells were maintained in the alpha modification of Eagle's medium (α-MEM; Life Technologies, Grand Island, N.Y., USA) containing 10% fetal bovine serum (FBS; Asahi Technoglass, Chiba, Japan) and 1% antibiotics (100 U/ml of Penicillin-G and 100 μg/ml of Streptomycin sulfate; Gibco BRL, Grand Island, N.Y., USA) at 37° C. in a humidified 5% CO2 atmosphere. The ST2 cells (Riken Cell Bank, Tsukuba, Japan), an osteoblast-like mouse bone marrow stromal cell line, were cultured under the same conditions.
HPDL cells of approximately 5×10^5 cells per well were distributed in 96-well plates and incubated for 24 h. […] After 96 additional hours of incubation, ALP activity was determined using p-nitrophenylphosphate as a substrate. […]
The ALP inducing activities of synthetic peptides using the cell culture of HPDL cells and ST2 cells were examined. […] The ALP activity was determined after 10 min incubation at 37° C. and the absorbance at 405 nm was read using a plate reader, after adding 0.2 M NaOH to stop the reaction. […]

[1] = test system: buccal dehiscence type bone defects created along the roots of the canine mandibular premolars; experiment: Cementum regeneration (CR) activity, eight-week histological analysis on buccal dehiscence model of dogs; format: in vivo, beagle dogs; conditions: histological analysis eight weeks after application; buccal dehiscence model of dogs
Experimental: Approximately 2-year-old male beagle dogs (approximate 15 kg) were used to detect the CR activities after the applications of several enamel protein samples. They had intact dentition and a healthy periodontium. The surgical preparation of buccal dehiscence type bone defects was carried out according to the modified method of Hammarström (1997) under general anesthesia induced and maintained by an endotracheal tube with 1.5-2.0% of halothane (Takeda Yakuhin Co. LTD, Osaka, Japan) in 100% oxygen, after premedicated with intramuscular injection of the mixture of Ketamine HCl (9.8 mg/kg: Sankyo Co. LTD, Tokyo, Japan) and Xylazine HCl (0.7 mg/kg: Bayer Co. LTD, Tokyo, Japan).
Contralateral buccal mucoperiosteal flaps were raised after an intracrevicular incision extending from the first mandibular premolar to the first mandibular molar. After the removing the buccal alveolar bone plate covering the mesial root of the second premolars, the exposed periodontal ligament and cementum of these areas were completely removed by means of a dental bur. At the apical end of the defect, a notch was created to identify the apical extension of the defect, when histological analyses. The distance between the cervical margin and the apical end of the defect was standardized at about 5 mm. The exposed root dentin surfaces were conditioned for 2 min with cotton pellets soaked in a 19% EDTA solution, and then carefully rinsed with sterile saline. Then 50 μg of each enamel protein sample in 100 μl of cold sterile distilled water was applied over the entire buccal surface area of the exposed roots. Finally, the mucoperiosteal flaps were repositioned to their level prior to surgery and sutured. Distilled water was used as a negative control and EMDOGAIN® (BIORA AB, Malmö, Sweden) served as a positive control.
After 8 weeks the dogs were terminated by anesthetization with sodium pentobarbital. Their heads were fixed by perfusion with 0.1 M sodium cacodylate buffer (pH 7.4) containing 4% paraformaldehyde and 1% glutaraldehyde. Tissue blocks, which included teeth, bone, and tissue were dissected and demineralized in 10% formic acid containing 0.06 M sodium citrate and 0.1 M citric acid. All specimens were dehydrated using a graded series of alcohols and then embedded in paraffin. Serial sections (5 μm thick) were made and stained with hematoxylin/eosin for examination by light microscopy.
The length and thickness of cementums regenerated after application of fractionated and purified enamel protein samples and EMD were measured on the computer monitor of histological results. The length of the regenerated cementum was straight distance between the apical end of the defect and coronal extention of the new cementum, as well as to the crest of the new alveolar bone. Also, the thickness of cementum was measured at coronal end, apical end and between them.
CR promoting activity of enamel proteins obtained at each extracted and purified step were examined by eight-week histological analysis of buccal dehiscence type bone defects created along the roots of canine mandible (FIG. 1).

[2] = test system: human periodontal ligament (HPDL) cells; experiment: ALP inducing activity of HPDL cells on cell culture system; format: cell-based; conditions: for ALP activity of HPDL cells (porcine sheath proteins and synthetic peptides): 50 μg/ml protein or peptide, TGF-β1 50 ng/ml, BMP-2 500 ng/ml, 10 nM 1α-25dihydroxy-Vitamin D3; for ALP activity of HPDL cells (porcine sheath proteins and synthetic peptides) / ALP inducing activity of HPDL cells (Example 4): 96 h; for ALP inducing activity of HPDL cells (Example 4): peptides 50 μg/mL, TGF-β1 1 ng/mL, BMP-2 1 μg/mL; for ALP activity of HPDL cells (human synthetic peptides, Example 3): peptides around 1 ng/ml, TGF-β1 10 ng/ml
Description: as §1
HPDL cells were distributed in 96-well plates at a density of approximately 5×10^5 cells per a well and incubated for 24 h. The growth medium was then changed to contain 10 nM of 1α-25dihydroxy-Vitamin D3 (CALBIOCHEM, La Jolla, Calif.) and 50 μg/ml (final concentration) of fractionated enamel protein samples or synthesized peptides dissolved in ultrapure water. After 96 additional hours of incubation, the cells were washed once with PBS, and ALP activity was determined after a 10 min incubation at 37° C. in 10 mM p-nitrophenylphosphate (substrate) in 100 mM 2-amino-2-methyl-1,3-propanediol-HCl buffer (pH 10.0) containing 5 mM MgCl2. After adding 0.2 M NaOH, which stopped the reaction, the absorbance at 405 nm was read on a plate reader.
HPDL cells of approximately 5×10^5 cells per well were distributed in 96-well plates and incubated for 24 h. The growth medium was then changed to contain 10 nM of 1α-25dihydroxy-Vitamin D3 and 50 μg/ml (final concentration) of purified sheath protein or synthesized peptide. After 96 additional hours of incubation, ALP activity was determined using p-nitrophenylphosphate as a substrate.
The bioactivities of these synthetic peptides were tested their cytodifferentiation activity of HPDL cells and ST2 cells by determination of increasing ALP inducing activity on cell culture system. When these peptides applied in cell culture system, the concentration of their peptides was employed around 1 ng/ml. In the case of TGF-1, the concentration was 10 ng/ml.
Normal human periodontal ligament fibroblasts were maintained in an α-minimal essential medium (α-MEM) containing 10% fetal bovine serum, either with or without 10 nM 1α-25dihydroxy-vitamin D3 and 1% antibiotics (100 U/mL of penicillin G and 100 μg/mL of streptomycin sulfate) at 37° C. in a humidified atmosphere of air containing 5% CO2. Another cell line, ST2 cells, was obtained from an osteoblast-like mouse bone marrow stromal cell line. These cells were cultured in the same conditions as those described above.
The ALP inducing activities of synthetic peptides using the cell culture of HPDL cells and ST2 cells were examined. The HPDL cells were distributed in 96-well plates at a density of approximately 5×10^5 cells per well and incubated for 24 h. The medium was then changed to α-MEM containing 10 nM of 1α-25dihydroxy-vitamin D3 and either synthetic peptides or growth factors dissolved in ultra-pure water. After 96 h of incubation, the cells were washed once with phosphate-buffered saline, and 10 mM ρ-nitrophenylphosphate in 100 mM 2-amino-2-methel-1,3-propanediol-HCl buffer (pH 10.0) containing 5 mM MgCl2 was added. The ALP activity was determined after 10 min incubation at 37° C. and the absorbance at 405 nm was read using a plate reader, after adding 0.2 M NaOH to stop the reaction. […] When the synthetic peptides were applied in the cell culture system, their final concentrations were 25 or 50 μg/mL. A TGF-β1 receptor inhibitor (SB431542, 10 μM) was applied to the HPDL cell culture system to examine their influence relative to the ALP inducing activity of the synthetic peptides.

HPDL cells = experiment: Mineralization activity of HPDL cells (alizarin red S staining, calcium content); format: cell-based, human; conditions: for induction of mineralization of HPDL cells (Example 3): 30 days culture, 1 μg/ml of samples, differentiation medium
Experimental: (§2) The HPDL cells were plated in 24-well plates at an initial density of 1×10^5 cells/well. After 24 h of incubation, the medium was replaced with growth medium containing 50 μM ascorbic acid, 10 mM β-glycerophosphate, and 10 nM 1α,25-dihydroxyvitamin D3 (differentiation medium) and 1 μg/ml of samples. The medium was changed every 72 h. The cells were maintained for 30 days and then the medium was discarded.
The compartments of cells were fixed in 100% methanol, stained with alizarin red S for 10 min, then washed with ultrapure water and photographed to examine the biomineralization activity. The staining solution was 1% alizarin red S (sodium alizarin sulfonate) (Sigma) dissolved in ultrapure water and adjusted to pH 6.4 with 0.1N ammonium hydroxide.
For measuring the calcium content, the compartments of cells were dissolved by 0.5N hydrochloric acid. The resulting solution was measured by a Calcium C-test kit and protocol (Wako Pure Chemical Industries Ltd, Osaka, Japan). The absorbance at 570 nm was read on a plate reader.
as §2, with “h and the” for “h. The”, “days. The biomineralization activity was examined by staining with alizarin red S” for “days”, “measuring calcium content.” for “then the medium was discarded.”
The HPDL cells were plated in six-well plates at an initial density of 1×10^5 cells per well. […]
For Alizarin Red S staining, the compartments of 28 d cultured cells were fixed in 100% methanol, stained with Alizarin Red S for 10 min, then washed with ultra-pure water and photographed. […] The resulting solution was measured using a Calcium C-test kit and protocol. The absorbance at 570 nm was read with a plate reader. […]

[3] = test system: osteopontin, osteocalcin and bone sialoprotein expression in HPDL cells; experiment: Semi-quantitative PCR of mineralized tissue markers in cultured HPDL cells; format: cell-based, human; conditions: 4, 14 and 28 d cultured HPDL cells; H-2 25 μg/mL; TGF-β1 1 ng/mL
Description: Total RNA was extracted using RNAzol™ B from cultured HPDL cells. […] The PCR primers were designed based upon the Homo sapiens mRNA sequences. The primer pairs were as follows: osteopontin, 5′-[…]-3′ (SEQ ID NO: 45) and 5′-[…] TGAA-3′ (SEQ ID NO: 46) (301 bp); osteocalcin, 5′-[…]-3′ (SEQ ID NO: 47) and 5′-[…] GAGGT-3′ (SEQ ID NO: 48) (304 bp); and bone sialo protein, 5′-[…]-3′ (SEQ ID NO: 49) and 5′-[…]-3′ (SEQ ID NO: 50) (448 bp). A primer set amplifying glyceraldehyde-3phosphate dehydrogenase mRNA was used as a control.
The cDNAs generated from HPDL cells […] the DNA Master SYBR Green I kit and protocol and a LightCycler instrument. The relative amount of each mRNA was determined at 50% levels of PCR product, and normalized with use of the relative amount of GAPDH mRNA.

[4] = test system: human periodontal ligament (HPDL) cells; conditions: cited from earlier work
[5] = 10 nM 1α-25dihydroxy-vitamin D3

Molecule: TGF-β1: recombinant growth factor, positive control [reference compound]
- ALP activity of ST2 cells (porcine sheath proteins and synthetic peptides) (ST2 cells): not stimulated
- CR (cementum regeneration) activity [1]: shown to have the same activity
- ALP inducing activity of HPDL cells when adding TGF-β1 receptor inhibitor SB431542 ([2]; 10 μM SB431542, 10 nM 1α-25dihydroxy-vitamin D3): inhibited distinctly
- ALP activity of HPDL cells (porcine sheath proteins and synthetic peptides) [2]: further increased
- concentration for increasing ALP inducing activity of HPDL cells, molar ([2]; calculated from molecular weight (TGF-β1 25 kDa; peptides average 1.5 kDa)): 0.4 nM/liter
- apt concentration for increasing ALP inducing activity of HPDL cells ([2]; cell culture system): around 10 ng/ml
- ALP inducing activity of HPDL cells (Example 4) [2, 5]: enhanced in a dose-dependent manner; also recorded: increased

Molecule: SDKPPKPELPGVDF (14 aa from 144 to 157 in sequence 11; listed as Homo sapiens) [H-2]
- mineralization by HPDL cells (Example 4) (HPDL cells; 28 d cell culture, H-2 25 μg/mL, TGF-β1 1 ng/mL): induced mineralization
- induction of mineralization of HPDL cells (Example 3) (HPDL cells): enhanced the induction of mineralization
- expressions of osteopontin, osteocalcin and bone sialoprotein [3]: closely similar to those of TGF-β1
- ALP inducing activity of HPDL cells (Example 4) [2, 5]: highest ALP inducing activity
- ALP activity of HPDL cells (human synthetic peptides, Example 3) [2]: enhanced dose dependently

Molecule: QVEGPMVQQQVAPSEK (16 aa from 131 to 146 in sequence 10; listed as Sus scrofa) [P-1]
- ALP inducing activity among porcine ESP synthetic peptides (previous study) [4]: highest ALP inducing activity among all the porcine ESP synthetic peptides tested

Molecule: FADPQGPSLPGMDF (14 aa from 157 to 170 in sequence 11; listed as Homo sapiens) [H-3]
- induction of mineralization of HPDL cells (Example 3) (HPDL cells): enhanced the induction of mineralization
- ALP activity of HPDL cells (human synthetic peptides, Example 3) [2]: enhanced dose dependently

B1: 13 kDa sheath protein: sheath protein containing the 99 amino acids extending from M32 to Q130 (protein)
chain: MLSQYSRFGFGKSFNSLWMHGLLPPHSSFQWMRPREHETQQYEYSLPVHPPPLPSQPSLQPQQPGQKPFLQPTVVTSIQNPVQKGVPQPPIYQGHPPLQ
- CR (cementum regeneration) activity [1]: do not exhibit any cementum regeneration activity
- ALP activity of HPDL cells (porcine sheath proteins and synthetic peptides) [2]: not
